One data set concerns the target human VMAT2 (Homo sapiens (Human), UniProt Q05940). The experiment in a line: VMAT2 radioligand binding, 3H-dihydrotetrabenazine competition on human platelet homogenate. Particulars: 10 nM 3H-dihydrotetrabenazine, human platelet homogenate, 25° C., 90 minutes; read-out: VMAT2 Ki. An outline of the steps: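 Human platelet homogenate (30 μg membrane protein/well) in DPBS with 1 mM EDTA, pH 7.4; twelve test-compound concentrations competed against 10 nM ³H-dihydrotetrabenazine. Incubated 90 min at 25 °C, bound radioligand collected by filtration on PEI-pretreated glass-fibre filters and counted by scintillation; Ki derived.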

A short description of data set [1]: Stability of compounds in human liver microsomes. Type of data set: in vitro ADME. Particulars: for CLint scaled at 0.5 μM / half-life at 0.5 μM: both sexes, pH 7.4; for CLint scaled at 0.5 μM: liver microsomes, calculated from HLM half-life, read-out: HLM Scaled Intrinsic Clearance; for CLint scaled at 0.5 μM / Predicted Max. Bioavailability (% F) / HLM Predicted Systemic Clearance: human; for half-life at 0.5 μM: 0.5 μM compound, 0.5 mg/mL human liver microsomes, 37° C., maxed at 420 minutes, read-out: HLM Elimination half-life (t1/2, min); for Predicted Max. Bioavailability (% F): predicted from HLM data; for HLM Predicted Systemic Clearance: scaled from HLM half-life (Obach method). An outline of the steps: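 Compound at 0.5 μM incubated at 37 °C with pooled mixed-gender human liver microsomes (0.5 mg/mL protein) and an NADPH-generating system in pH 7.4 phosphate buffer, sampled 0–60 min. Parent depletion tracked by LC-MS/MS; t1/2 derived from the slope by non-linear regression, with predicted extraction ratio and maximum bioavailability also calculated.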

These results are taken from patent US11718618B2, “Substituted pyrido[2,1-a]isoquinolines as VMAT2 inhibitors” (priority 2021, dated 2023).

Bounds are passed on as bounds.

human VMAT2, sequence (Q05940 whole entry): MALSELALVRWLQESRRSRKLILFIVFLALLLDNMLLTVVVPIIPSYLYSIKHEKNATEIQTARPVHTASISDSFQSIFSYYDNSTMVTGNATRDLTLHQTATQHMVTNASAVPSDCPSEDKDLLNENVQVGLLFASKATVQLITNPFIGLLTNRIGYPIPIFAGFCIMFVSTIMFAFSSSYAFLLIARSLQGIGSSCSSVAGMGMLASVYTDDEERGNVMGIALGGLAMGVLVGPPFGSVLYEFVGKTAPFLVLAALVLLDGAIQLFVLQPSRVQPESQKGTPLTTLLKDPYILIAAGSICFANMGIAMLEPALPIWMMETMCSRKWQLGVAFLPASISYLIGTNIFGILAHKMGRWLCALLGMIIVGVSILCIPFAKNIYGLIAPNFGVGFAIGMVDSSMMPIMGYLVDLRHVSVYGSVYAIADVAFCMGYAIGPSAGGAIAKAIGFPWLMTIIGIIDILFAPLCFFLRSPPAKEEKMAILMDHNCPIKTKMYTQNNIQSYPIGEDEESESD

Regarding `COc1cc2c(cc1OCC1CC1(F)F)CCN1C[C@@H](CC(C)(C)C)[C@H](O)C[C@H]21` (stereo partly drawn) [Compound 4-121, (2R,3R,11bR)-9-[(2,2-difluorocyclopropyl)methoxy]-3-(2,2-dimethylpropyl)-10-methoxy-1H,2H,3H,4H,6H,7H,11bH-pyrido[2,1-a]isoquinolin-2-ol], the inhibition constant (Ki) at human VMAT2 worked out at 0.82 nM. Moreover, in data set [1], the CLint scaled at 0.5 μM was 4.46 mL/min/kg, the half-life at 0.5 μM turned out to be 280 min, the “Predicted Max. Bioavailability (% F)” value is on record as 82 % F and the “HLM Predicted Systemic Clearance” value is 3.64 mL/min/kg.
Consider `COc1cc2c(cc1OC[C@@H](C)OC)CCN1C[C@@H](CC(C)(C)C)[C@H](O)C[C@H]21` [Compound 4-91, (2R,3R,11bR)-3-(2,2-dimethylpropyl)-10-methoxy-9-[(2R)-2-methoxypropoxy]-1H,2H,3H,4H,6H,7H,11bH-pyrido[2,1-a]isoquinolin-2-ol], for which the Ki at human VMAT2 stood at 28 nM. In data set [1], the CLint scaled at 0.5 μM was 19.7 mL/min/kg, the half-life at 0.5 μM amounted to 63 min, the “Predicted Max. Bioavailability (% F)” value is reported as 50 % F and the “HLM Predicted Systemic Clearance” value was 9.92 mL/min/kg.
For `COc1cc2c(cc1OCC#N)CCN1C[C@@H](CC(C)(C)C)[C@H](O)C[C@H]21` [Compound 4-24, 2-{[(2R,3R,11bR)-3-(2,2-dimethylpropyl)-2-hydroxy-10-methoxy-1H,2H,3H,4H,6H,7H,11bH-pyrido[2,1-a]isoquinolin-9-yl]oxy}acetonitrile], at human VMAT2, the Ki came out at 35 nM. In data set [1], the CLint scaled at 0.5 μM was 10.7 mL/min/kg, the half-life at 0.5 μM is 117 min, the “Predicted Max. Bioavailability (% F)” value is reported as 65 % F and the “HLM Predicted Systemic Clearance” value is 6.97 mL/min/kg.
Taken in the same sequence, the figures for `COc1cc2c(cc1OCC1COC1)CCN1C[C@@H](CC(C)(C)C)[C@H](O)C[C@H]21` [Compound 4-22, (2R,3R,11bR)-3-(2,2-dimethylpropyl)-10-methoxy-9-(oxetan-3-ylmethoxy)-1H,2H,3H,4H,6H,7H,11bH-pyrido[2,1-a]isoquinolin-2-ol] were 14 nM, 9.6 mL/min/kg, 130 min, 68 % F and 6.49 mL/min/kg.
`COc1cc2c(cc1OCc1cccc(C#N)c1)CCN1C[C@@H](CC(C)(C)C)[C@H](O)C[C@H]21` [Compound 4-116, 3-({[(2R,3R,11bR)-3-(2,2-dimethylpropyl)-2-hydroxy-10-methoxy-1H,2H,3H,4H,6H,7H,11bH-pyrido[2,1-a]isoquinolin-9-yl]oxy}methyl)benzonitrile]: on human VMAT2, the Ki came to 56 nM. Further, in data set [1], the CLint scaled at 0.5 μM is 21.8 mL/min/kg, the half-life at 0.5 μM was 57 min, the “Predicted Max. Bioavailability (% F)” value is on record as 48 % F and the “HLM Predicted Systemic Clearance” value was 10.44 mL/min/kg.
For the molecule `COc1cc2c(cc1OCC(C)(F)F)CCN1C[C@@H](CC(C)(C)C)[C@H](O)C[C@H]21` [Compound 4-14, (2R,3R,11bR)-9-(2,2-difluoropropoxy)-3-(2,2-dimethylpropyl)-10-methoxy-1H,2H,3H,4H,6H,7H,11bH-pyrido[2,1-a]isoquinolin-2-ol], the Ki at human VMAT2 came out at 2.6 nM. Further, in data set [1], the CLint scaled at 0.5 μM is at most 2.97 mL/min/kg, the half-life at 0.5 μM is at least 420 min, the “Predicted Max. Bioavailability (% F)” value is at least 87 % F and the “HLM Predicted Systemic Clearance” value is at most 2.59 mL/min/kg.
`COc1cc2c(cc1OCCOC1(C#N)CCC1)CCN1C[C@@H](CC(C)(C)C)[C@H](O)C[C@H]21` [Compound 4-23, 1-(2-{[(2R,3R,11bR)-3-(2,2-dimethylpropyl)-2-hydroxy-10-methoxy-1H,2H,3H,4H,6H,7H,11bH-pyrido[2,1-a]isoquinolin-9-yl]oxy}ethoxy)cyclobutane-1-carbonitrile]: the Ki on human VMAT2 was determined as 0.41 nM. In data set [1], the CLint scaled at 0.5 μM was 58.5 mL/min/kg, the half-life at 0.5 μM came out at 21 min, the “Predicted Max. Bioavailability (% F)” value is recorded as 25 % F and the “HLM Predicted Systemic Clearance” value was 14.9 mL/min/kg.
For `COc1cc2c(cc1OCCc1ccc(F)cc1)CCN1C[C@@H](CC(C)(C)C)[C@H](O)C[C@H]21` [Compound 4-117, (2R,3R,11bR)-3-(2,2-dimethylpropyl)-9-[2-(4-fluorophenyl)ethoxy]-10-methoxy-1H,2H,3H,4H,6H,7H,11bH-pyrido[2,1-a]isoquinolin-2-ol], the Ki at human VMAT2 is 2.2 nM. In data set [1], the CLint scaled at 0.5 μM is 112 mL/min/kg, the half-life at 0.5 μM is 11 min, the “Predicted Max. Bioavailability (% F)” value is given as 15 % F and the “HLM Predicted Systemic Clearance” value is 16.98 mL/min/kg.
For the molecule `CC[C@@H]1C[C@H]1COc1cc2c(cc1OC)[C@H]1C[C@@H](O)[C@H](CC(C)(C)C)CN1CC2` [Compound 4-90, (2R,3R,11bR)-3-(2,2-dimethylpropyl)-9-{[(1R,2R)-2-ethylcyclopropyl]methoxy}-10-methoxy-1H,2H,3H,4H,6H,7H,11bH-pyrido[2,1-a]isoquinolin-2-ol], on human VMAT2, the Ki turned out to be 0.29 nM. Further, in data set [1], the CLint scaled at 0.5 μM is 156 mL/min/kg, the half-life at 0.5 μM came out at 8 min, the “Predicted Max. Bioavailability (% F)” value is listed as 11 % F and the “HLM Predicted Systemic Clearance” value was 17.72 mL/min/kg.
Taken in the same sequence, the figures for `CC[C@H](O)COc1cc2c(cc1OC)[C@H]1C[C@@H](O)[C@H](CC(C)(C)C)CN1CC2` [Compound 4-68, (2R,3R,11bR)-3-(2,2-dimethylpropyl)-9-[(2S)-2-hydroxybutoxy]-10-methoxy-1H,2H,3H,4H,6H,7H,11bH-pyrido[2,1-a]isoquinolin-2-ol] were 29 nM, 6.37 mL/min/kg, 196 min, 76 % F and 4.83 mL/min/kg.
With `COc1cc2c(cc1OCC(F)F)CCN1C[C@@H](CC(C)(C)C)[C@@H](O)C[C@H]21` [Compound 4-10, (2S,3R,11bR)-9-(2,2-difluoroethoxy)-3-(2,2-dimethylpropyl)-10-methoxy-1H,2H,3H,4H,6H,7H,11bH-pyrido[2,1-a]isoquinolin-2-ol], the Ki on human VMAT2 was determined as 15 nM. Further, in data set [1], the CLint scaled at 0.5 μM is 3.65 mL/min/kg, the half-life at 0.5 μM is 342 min, the “Predicted Max. Bioavailability (% F)” value is 85 % F and the “HLM Predicted Systemic Clearance” value was 3.09 mL/min/kg.
In the case of `COc1cc2c(cc1OCC(C)(C)O)CCN1C[C@@H](CC(C)(C)C)[C@H](O)C[C@H]21` [Compound 4-47, (2R,3R,11bR)-3-(2,2-dimethylpropyl)-9-(2-hydroxy-2-methylpropoxy)-10-methoxy-1H,2H,3H,4H,6H,7H,11bH-pyrido[2,1-a]isoquinolin-2-ol], the Ki at human VMAT2 stood at 15 nM. For the same molecule, in data set [1], the CLint scaled at 0.5 μM is at most 2.97 mL/min/kg, the half-life at 0.5 μM is at least 420 min, the “Predicted Max. Bioavailability (% F)” value is recorded as at least 87 % F and the “HLM Predicted Systemic Clearance” value was at most 2.59 mL/min/kg.
With `COc1cc2c(cc1OCCCF)CCN1C[C@@H](CC(C)(C)C)[C@H](O)C[C@H]21` [Compound 4-28, (2R,3R,11bR)-3-(2,2-dimethylpropyl)-9-(3-fluoropropoxy)-10-methoxy-1H,2H,3H,4H,6H,7H,11bH-pyrido[2,1-a]isoquinolin-2-ol], the Ki at human VMAT2 came out at 0.48 nM. Besides, in data set [1], the CLint scaled at 0.5 μM was 31.8 mL/min/kg, the half-life at 0.5 μM is 39 min, the “Predicted Max. Bioavailability (% F)” value is listed as 39 % F and the “HLM Predicted Systemic Clearance” value is 12.28 mL/min/kg.

What is called Ki is the dissociation constant of the complex between target and ligand, obtained from inhibition or displacement.
